Results on nine molecules are retold here after US9724347B2, “1-pyrazolyl-3-(4-((2-anilinopyrimidin-4-yl)oxy)napththalen-1-yl) ureas as P38 MAP knase inhibitors” (Respivert Ltd., priority 2011, dated 2017).

SMILES strings stand for the structures.

For data set [1], the target named is p38 MAPKα isoform (MAPK14) (Homo sapiens (Human), UniProt Q16539). Description: p38 MAPKα enzyme inhibition (FRET, Z-LYTE). The data set is classed as biochemical.
In a further data set the target is p38MAPKγ (MAPK12) (Homo sapiens (Human), UniProt P53778). Description: p38 MAPKγ enzyme inhibition (FRET, Z-LYTE). The data set is classed as biochemical. The procedure, abridged: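 Z-LYTE FRET kinase format on donor/acceptor-labeled synthetic peptide; protease development 1 hr cleaves only non-phosphorylated peptide. Phosphorylation derived from coumarin/fluorescein emission ratio, low ratio indicating high phosphorylation.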

A further data set deals with GSK 3α enzyme isoform (Homo sapiens (Human), UniProt P49840). Description: GSK 3α enzyme inhibition (FRET, Z-LYTE). The format is biochemical. The settings on record: read-out: IC50 Values for Enzyme Inhibition GSK3α. The procedure, abridged: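 Human GSK3α (500 ng/mL stock) was preincubated 2 h at RT with compound (stocks 4, 0.4, 0.04 or 0.004 μg/mL), then given FRET peptide (8 μM stock) and ATP (40 μM stock) for 1 h. After 1 h protease development, the coumarin/fluorescein emission ratio gave phosphorylation level.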

For data set [2], the system named is ICAM-1 expression in BEAS2B cells. The data set is described as follows: Poly I:C-induced ICAM-1 expression in BEAS2B cells. The data set is classed as cell-based, human. The settings on record: Homo sapiens, BEAS-2B, read-out: PolyIC/ICAM1 IC50 (BEAS2B). The procedure, abridged:
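BEAS2B human bronchial epithelial cells pre-incubated 2 h with compound, then transfected with 1 μg/mL poly I:C plus Oligofectamine. After 18 h, surface ICAM-1 measured by cell-based ELISA (OD450–655), normalised to crystal violet cell count (OD595). Inhibition calculated against vehicle control.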

A further data set has as its system d-U937 cells. The data set is described as follows: Cell viability: MTT assay. The data set is classed as cell-based, human. The settings on record: 1 μg/mL. The procedure, abridged:
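Differentiated U937 cells exposed to compound at 1 or 10 μg/mL final, either 4 h in 5% FCS RPMI1640 or 24 h in 10% FCS RPMI1640. After medium replacement, MTT added 1 h, formazan dissolved in DMSO, A550 read. % viability loss vs 0.5% DMSO vehicle; apparent viability gain shown as negative %.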
On the technique in general: Tetrazolium assays rely on reduction of a dye to a coloured formazan, in cell work by metabolically active cells.

The next data set concerns PBMC cells. The data set is described as follows: Cell mitosis assay. The data set is classed as cell-based, human. On the procedure: Peripheral blood mononucleocytes (PBMCs) from healthy subjects were separated from whole blood (Quintiles, London, UK) using a density gradient (Histopaque®-1077, Sigma-Aldrich, Poole, UK). The PBMCs (3 million cells per sample) were subsequently treated with 2% PHA (Sigma-Aldrich, Poole, UK) for 48 hr, followed by a 20 hr exposure to varying concentrations of test compounds. At 2 hr before collection, PBMCs were treated with demecolcine (0.1 μg/mL; Invitrogen, Paisley, UK,) to arrest cells in metaphase. To observe mitotic cells, PBMCs were permeabilised and fixed by adding Intraprep (50 μL; Beckman Coulter, France), and stained with anti-phospho-histone 3 ([…]; #9701; Cell Signalling, Danvers, Mass.) and propidium iodide (1 mg/mL; Sigma-Aldrich, Poole, UK,) as previously described (Muehlbauer P. A. and Schuler M. J., Mutation Research, 2003, 537:117-130). Fluorescence was observed using an ATTUNE flow cytometer (Invitrogen, Paisley, UK), gating for lymphocytes.

p38 MAPKα isoform (MAPK14), sequence (Q16539 whole entry, canonical isoform): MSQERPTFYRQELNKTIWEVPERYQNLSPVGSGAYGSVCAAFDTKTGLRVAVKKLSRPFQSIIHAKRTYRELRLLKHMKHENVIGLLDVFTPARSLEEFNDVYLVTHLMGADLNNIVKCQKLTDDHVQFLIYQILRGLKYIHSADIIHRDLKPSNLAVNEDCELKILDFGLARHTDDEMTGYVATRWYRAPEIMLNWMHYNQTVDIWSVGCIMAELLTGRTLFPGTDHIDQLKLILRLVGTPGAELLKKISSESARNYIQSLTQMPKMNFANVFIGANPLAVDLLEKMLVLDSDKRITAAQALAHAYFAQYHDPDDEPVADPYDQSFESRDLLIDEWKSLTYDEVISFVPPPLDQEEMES
p38MAPKγ (MAPK12), sequence (P53778 whole entry): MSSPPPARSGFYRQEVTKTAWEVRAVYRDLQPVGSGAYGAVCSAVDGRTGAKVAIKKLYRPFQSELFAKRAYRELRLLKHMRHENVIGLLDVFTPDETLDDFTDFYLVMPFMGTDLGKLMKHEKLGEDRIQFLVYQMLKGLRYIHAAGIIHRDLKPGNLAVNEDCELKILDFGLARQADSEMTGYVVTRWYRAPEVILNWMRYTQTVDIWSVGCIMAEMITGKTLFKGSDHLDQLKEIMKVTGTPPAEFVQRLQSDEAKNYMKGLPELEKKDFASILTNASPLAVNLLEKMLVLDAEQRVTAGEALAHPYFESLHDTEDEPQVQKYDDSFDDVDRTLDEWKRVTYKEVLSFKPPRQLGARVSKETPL
GSK 3α enzyme isoform, sequence (P49840 whole entry, canonical isoform): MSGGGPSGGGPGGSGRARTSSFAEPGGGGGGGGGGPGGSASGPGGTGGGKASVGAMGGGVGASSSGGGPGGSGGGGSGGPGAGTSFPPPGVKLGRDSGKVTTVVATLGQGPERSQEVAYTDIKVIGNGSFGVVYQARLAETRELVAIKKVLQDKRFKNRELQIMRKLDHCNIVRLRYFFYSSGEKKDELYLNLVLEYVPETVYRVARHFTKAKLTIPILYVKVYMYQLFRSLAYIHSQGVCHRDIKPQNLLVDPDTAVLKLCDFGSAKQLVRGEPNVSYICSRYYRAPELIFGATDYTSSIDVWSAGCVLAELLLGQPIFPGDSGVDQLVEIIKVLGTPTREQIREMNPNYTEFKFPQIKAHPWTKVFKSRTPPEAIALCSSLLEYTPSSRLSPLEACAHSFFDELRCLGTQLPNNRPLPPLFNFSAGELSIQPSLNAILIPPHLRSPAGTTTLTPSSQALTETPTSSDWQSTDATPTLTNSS

On to `CCOc1ccc(Nc2nccc(Oc3ccc(NC(=O)Nc4cc(C(C)(C)C)nn4-c4ccc(C)cc4)c4ccccc34)n2)cc1` [Example 22, 1-(3-(tert-butyl)-1-(p-tolyl)-1H-pyrazol-5-yl)-3-(4-((2-((4-ethoxyphenyl)amino)pyrimidin-4-yl)oxy)naphthalen-1-yl)urea], for which the IC50 in data set [1] is 0.281 µM; on p38MAPKγ (MAPK12), more than 1.59 µM; on GSK 3α enzyme isoform it was more than 1.59 µM; in data set [2] it was 0.013 µM. Also, the “MTT Assay Cell viability at time point in d-U937 Cells” value (“MTT Assay Cell viability” for short) in the data set with d-U937 cells (4 h) is “−ve (−ve and +ve indicate the value is below and above respectively, the no significant effect threshold defined as 30% inhibition at 1 μg/mL at the time point indicated)”; in the data set on d-U937 cells (24 h), “−ve (−ve and +ve indicate the value is below and above respectively, the no significant effect threshold defined as 30% inhibition at 1 μg/mL at the time point indicated)”. For the same molecule, the “Mitosis Assay % inhibition in PBMC Cells” value in the data set with PBMC cells (5 μg/mL) is 70.8%.
Consider `Cc1ccc(-n2nc(C(C)(C)C)cc2NC(=O)Nc2ccc(Oc3ccnc(Nc4ccc(O)cc4)n3)c3ccccc23)cc1` [Example 9, 1-(3-(tert-butyl)-1-(p-tolyl)-1H-pyrazol-5-yl)-3-(4-((2-((4-hydroxyphenyl)amino)pyrimidin-4-yl)oxy)naphthalen-1-yl)urea], for which the results for the IC50 (in data set [1]; on p38MAPKγ (MAPK12); on GSK 3α enzyme isoform) were 0.171 µM, 0.76 µM and 3.26 µM, respectively. Besides, the “MTT Assay Cell viability” value in the data set with d-U937 cells (4 h) was “−ve (−ve and +ve indicate the value is below and above respectively, the no significant effect threshold defined as 30% inhibition at 1 μg/mL at the time point indicated)”; in the data set on d-U937 cells (24 h), “−ve (−ve and +ve indicate the value is below and above respectively, the no significant effect threshold defined as 30% inhibition at 1 μg/mL at the time point indicated)”. Further, the “Mitosis Assay % inhibition in PBMC Cells” value in the data set on PBMC cells (5 μg/mL) came to 50.3%.
For the molecule `COc1ccc(Nc2nccc(Oc3ccc(NC(=O)Nc4cc(C(C)(C)C)nn4-c4ccc(C)cc4)c4ccccc34)n2)c(OC)c1` [Example 8, 1-(3-(tert-butyl)-1-(p-tolyl)-1H-pyrazol-5-yl)-3-(4-((2-((2,4-dimethoxyphenyl)amino)pyrimidin-4-yl)oxy)naphthalen-1-yl)urea], the IC50 in data set [1] was 0.151 µM; against p38MAPKγ (MAPK12), more than 15.5 µM; at GSK 3α enzyme isoform, more than 15.5 µM; in data set [2] it was 0.022 µM. For the same molecule, the “MTT Assay Cell viability” value with d-U937 cells (4 h) is “−ve (−ve and +ve indicate the value is below and above respectively, the no significant effect threshold defined as 30% inhibition at 1 μg/mL at the time point indicated)”; in the data set on d-U937 cells (24 h), “−ve (−ve and +ve indicate the value is below and above respectively, the no significant effect threshold defined as 30% inhibition at 1 μg/mL at the time point indicated)”. Also, in the data set with PBMC cells (1 μg/mL), the “Mitosis Assay % inhibition in PBMC Cells” value is 15.6%.
For `COc1ccc(-n2nc(C(C)(C)C)cc2NC(=O)Nc2ccc(Oc3ccnc(Nc4ccc(O)cc4)n3)c3ccccc23)cc1` [Example 33, 1-(3-(tert-butyl)-1-(4-methoxyphenyl)-1H-pyrazol-5-yl)-3-(4-((2-((4-hydroxyphenyl)amino)pyrimidin-4-yl)oxy)naphthalen-1-yl)urea], the IC50 in data set [1] turned out to be 0.06 µM; at p38MAPKγ (MAPK12), 0.264 µM; on GSK 3α enzyme isoform, 2.38 µM; in data set [2], 0.0026 µM. Also, the “MTT Assay Cell viability” value in the data set on d-U937 cells (4 h) was “−ve (−ve and +ve indicate the value is below and above respectively, the no significant effect threshold defined as 30% inhibition at 1 μg/mL at the time point indicated)”; in the data set with d-U937 cells (24 h) it was “−ve (−ve and +ve indicate the value is below and above respectively, the no significant effect threshold defined as 30% inhibition at 1 μg/mL at the time point indicated)”. Also, the “Mitosis Assay % inhibition in PBMC Cells” value in the data set with PBMC cells (5 μg/mL) is 67.2%.
For the molecule `COc1ccc(Nc2nccc(Oc3ccc(NC(=O)Nc4cc(C(C)(C)C)nn4-c4ccc(C)cc4)c4ccccc34)n2)cc1OC` [Example 27, 1-(3-(tert-butyl)-1-(p-tolyl)-1H-pyrazol-5-yl)-3-(4-((2-((3,4-dimethoxyphenyl)amino)pyrimidin-4-yl)oxy)naphthalen-1-yl)urea], the IC50 in data set [1] was found to be 0.105 µM; against p38MAPKγ (MAPK12), 0.535 µM; at GSK 3α enzyme isoform, 2.11 µM; in data set [2], 0.0016 µM. Besides, the “MTT Assay Cell viability” value in the data set with d-U937 cells (4 h) was “+ve (−ve and +ve indicate the value is below and above respectively, the no significant effect threshold defined as 30% inhibition at 1 μg/mL at the time point indicated)”; in the data set with d-U937 cells (24 h) it was “−ve (−ve and +ve indicate the value is below and above respectively, the no significant effect threshold defined as 30% inhibition at 1 μg/mL at the time point indicated)”. The “Mitosis Assay % inhibition in PBMC Cells” value with PBMC cells (5 μg/mL) is 11.2%.
Take `Cc1ccc(-n2nc(C(C)(C)C)cc2NC(=O)Nc2ccc(Oc3ccnc(Nc4ccc(O)cc4O)n3)c3ccccc23)cc1` [Example 32, 1-(3-(tert-butyl)-1-(p-tolyl)-1H-pyrazol-5-yl)-3-(4-((2-((2,4-dihydroxyphenyl)amino)pyrimidin-4-yl)oxy)naphthalen-1-yl)urea]: the IC50 in data set [1] was 0.189 µM; against p38MAPKγ (MAPK12), more than 1.62 µM; on GSK 3α enzyme isoform it was more than 1.62 µM; in data set [2], 0.021 µM. For the same molecule, the “MTT Assay Cell viability” value is “−ve (−ve and +ve indicate the value is below and above respectively, the no significant effect threshold defined as 30% inhibition at 1 μg/mL at the time point indicated)” with d-U937 cells (4 h); “−ve (−ve and +ve indicate the value is below and above respectively, the no significant effect threshold defined as 30% inhibition at 1 μg/mL at the time point indicated)” in the data set with d-U937 cells (24 h). Further, the “Mitosis Assay % inhibition in PBMC Cells” value in the data set with PBMC cells (5 μg/mL) turned out to be 33.0%.
`Cc1ccc(-n2nc(C(C)(C)C)cc2NC(=O)Nc2ccc(Oc3ccnc(Nc4cccc(O)c4)n3)c3ccccc23)cc1` [Example 2, 1-(3-(tert-Butyl)-1-(p-tolyl)-1H-pyrazol-5-yl)-3-(4-((2-((3-hydroxyphenyl)amino)pyrimidin-4-yl)oxy)naphthalen-1-yl)urea] displayed an IC50 on p38MAPKγ (MAPK12) of 0.557 µM. The “MTT Assay Cell viability” value is “−ve (−ve and +ve indicate the value is below and above respectively, the no significant effect threshold defined as 30% inhibition at 1 μg/mL at the time point indicated)” in the data set with d-U937 cells (4 h); “−ve (−ve and +ve indicate the value is below and above respectively, the no significant effect threshold defined as 30% inhibition at 1 μg/mL at the time point indicated)” in the data set on d-U937 cells (24 h). Besides, in the data set on PBMC cells (5 μg/mL), the “Mitosis Assay % inhibition in PBMC Cells” value was 70.6%.
As to `COc1ccc(-n2nc(C(C)(C)C)cc2NC(=O)Nc2ccc(Oc3ccnc(Nc4ccccc4)n3)c3ccccc23)cc1` [Example 7, 1-(3-(tert-butyl)-1-(4-methoxyphenyl)-1H-pyrazol-5-yl)-3-(4-((2-(phenylamino)pyrimidin-4-yl)oxy)naphthalen-1-yl)urea], the IC50 in data set [1] is 0.17 µM; against p38MAPKγ (MAPK12), 1.7 µM; on GSK 3α enzyme isoform, 3.5 µM; in data set [2], 0.023 µM. Further, the “MTT Assay Cell viability” value in the data set with d-U937 cells (4 h) is “−ve (−ve and +ve indicate the value is below and above respectively, the no significant effect threshold defined as 30% inhibition at 1 μg/mL at the time point indicated)”; in the data set with d-U937 cells (24 h), “−ve (−ve and +ve indicate the value is below and above respectively, the no significant effect threshold defined as 30% inhibition at 1 μg/mL at the time point indicated)”. Besides, the “Mitosis Assay % inhibition in PBMC Cells” value in the data set on PBMC cells (5 μg/mL) amounted to 10.2%.
With `Cc1ccc(-n2nc(C(C)(C)C)cc2NC(=O)Nc2ccc(Oc3ccnc(Nc4cccc(Cl)c4)n3)c3ccccc23)cc1` [Example 13, 1-(3-(tert-butyl)-1-(p-tolyl)-1H-pyrazol-5-yl)-3-(4-((2-((3-chlorophenyl)amino)pyrimidin-4-yl)oxy)naphthalen-1-yl)urea], the IC50 was 0.262 µM in data set [1], more than 16.2 µM at p38MAPKγ (MAPK12), more than 16.2 µM at GSK 3α enzyme isoform and 0.003 µM in data set [2]. Further, the “MTT Assay Cell viability” value in the data set on d-U937 cells (4 h) is “−ve (−ve and +ve indicate the value is below and above respectively, the no significant effect threshold defined as 30% inhibition at 1 μg/mL at the time point indicated)”; with d-U937 cells (24 h) it was “−ve (−ve and +ve indicate the value is below and above respectively, the no significant effect threshold defined as 30% inhibition at 1 μg/mL at the time point indicated)”.
